Among the data in US20150315188A1, “COMPOUNDS AND METHODS FOR TREATMENT OF HYPERTENSION” (MEDIVATION TECHNOLOGIES, INC., priority 2012, published 2015) are half-life and inhibition values, retold here.

A short description of data set [1]: Stability in the presence of human hepatocytes. In kind it is in vitro ADME. As to conditions: both sexes, human, cryopreserved hepatocytes, pH 7.4, human hepatocytes, 37° C., average of duplicates, ^a = 0-120 minute time points, read-out: T1/2 Human. As for the experimental part:
(§1) Compounds of the invention were tested for stability in the presence of dog, rat and human hepatocytes over a 4 hour period by LC/MS/MS. The study was performed by Integrated Analytical Solutions, Berkeley, Calif.
(§2) Reference Standards and Solutions: Compounds of the invention were stored as powders at ambient temperature in a desiccator and protected from light. Reference stock solutions of Compound Nos. 50a, 50b, 79a, 82, 91a and 178d, as 20 mM in DMSO were prepared and subsequently diluted to 2 mM in MeOH to provide working stock solutions (WSS). Unused standard solutions were stored at −20° C.
(§3) Hepatocyte Preparation: Human (mixed gender), Beagle dog (male) and Sprague Dawley rat (male) cryopreserved hepatocytes were purchased from Life Technologies Corporation. Hepatocytes were removed from liquid nitrogen, quickly thawed in a 37° C. water bath and transferred to Hepatocyte Thawing/Plating Medium (Cryopreserved Hepatocyte Recovery Medium, CHRM, Life Technologies Inc.). The cells were pelleted by slow speed centrifugation (˜100×g, 6 min) and resuspended at a high cell density. Hepatocyte viability was determined by trypan blue exclusion. Hepatocyte incubation medium (Life Technologies, Inc.) was added to generate a cell density of 2.0×10^6 cells/mL.
(§4) Hepatocyte Incubations for Stability: The 2 mM WSS was diluted 1 in 200 in hepatocyte incubation medium (pH 7.4) to 10 μM. A solution containing control compounds was prepared similarly to contain 10 μM each of dextromethorphan and testosterone. The solutions of test compounds and controls at 10 μM in hepatocyte incubation medium were pre-incubated at 37° C. for 10 min. Aliquots (250 μL) of hepatocyte suspensions (at 2.0×10^6 cells/mL) were transferred to appropriate 48-well plates and pre-incubated at 37° C. for 10 minutes. Metabolism was initiated by adding 250 μL pre-incubated medium (containing test drug) to wells containing cells. A negative control reaction excluding hepatocytes was used to monitor aqueous stability and/or non-specific adsorption. The final reaction mixtures contained 5 μM of test or control compound and 1.0×10^6 cells/mL. All reactions were performed in duplicate and carried at 37° C. in an incubator. Dextromethorphan and testosterone were used as control drugs to verify hepatocyte activity.
(§5) Aliquots were removed from each metabolism reaction at 0, 0.5, 2 and 4 hours. The reactions were terminated by adding each aliquot to a vessel containing 2× volumes (80 μL) of Internal Standard Solution (acetonitrile containing 50 ng/mL 2-(2,8-dimethyl-3,4-dihydro-1H-pyrido[4,3-b]indol-5(2H)-yl)-1-(pyridin-4-yl)ethanol (ISS1), 50 ng/mL of 2-(2,8-dimethyl-3,4-dihydro-1H-pyrido[4,3-b]indol-5(2H)-yl)-1-(piperidin-1-yl)ethanone (ISS2) and 5 ng/mL diphenhydramine. Terminated reactions were centrifuged at 6000 g for 30 mins at 4° C. to remove the precipitated proteins and cell debris. Following centrifugation, 20 μL of each supernatant was transferred to a deep-well microplate and diluted with 5× volumes (100 μL) of 0.2% formic acid in water. Compound 178d samples were diluted with 5× volumes (100 μL) of 0.1% HFBA in water. Samples were analyzed by LC/MS/MS.
(§6) Calculation of Metabolism Parameters: Percent remaining was measured by dividing the analyte/IS peak area ratio at the designated sample time by the peak area ratio at time 0. ISS1 served as the IS for Compound No. 178d. ISS2 served as the IS for Compound nos. 50a, 50b, 79a, 82 and 91a. The metabolic half-life (T1/2) was calculated using all time points unless otherwise noted. The T1/2 values were calculated as 0.693/k, where k is the slope of the log analyte/internal standard peak area ratio versus time. Metabolism rate was calculated by dividing the starting concentration of substrate by the concentration of hepatocytes, then dividing by the T1/2 value.

The nature of data set [2]: Stability in the presence of dog hepatocytes. Format: in vitro ADME, Beagle dog. As to conditions: male, Beagle, dog, cryopreserved hepatocytes, pH 7.4, dog hepatocytes, 37° C., average of duplicates, ^a = 0-120 minute time points, read-out: T1/2 Dog. On the procedure: as §1, §2, §3, §4, §5, §6
A short description of data set [3]: Stability in the presence of rat hepatocytes. Format: in vitro ADME, Sprague Dawley rat. The settings on record: male, Sprague Dawley, rat, cryopreserved hepatocytes, pH 7.4, rat hepatocytes, 37° C., average of duplicates, ^a = 0-120 minute time points, read-out: T1/2 Rat. On the procedure:
as §1, §2, §3, §4, §5, §6

Data set [4] deals with T1, Human adrenergic α2A receptor (Homo sapiens, UniProt P08913).
T1 sequence (P08913 1-465): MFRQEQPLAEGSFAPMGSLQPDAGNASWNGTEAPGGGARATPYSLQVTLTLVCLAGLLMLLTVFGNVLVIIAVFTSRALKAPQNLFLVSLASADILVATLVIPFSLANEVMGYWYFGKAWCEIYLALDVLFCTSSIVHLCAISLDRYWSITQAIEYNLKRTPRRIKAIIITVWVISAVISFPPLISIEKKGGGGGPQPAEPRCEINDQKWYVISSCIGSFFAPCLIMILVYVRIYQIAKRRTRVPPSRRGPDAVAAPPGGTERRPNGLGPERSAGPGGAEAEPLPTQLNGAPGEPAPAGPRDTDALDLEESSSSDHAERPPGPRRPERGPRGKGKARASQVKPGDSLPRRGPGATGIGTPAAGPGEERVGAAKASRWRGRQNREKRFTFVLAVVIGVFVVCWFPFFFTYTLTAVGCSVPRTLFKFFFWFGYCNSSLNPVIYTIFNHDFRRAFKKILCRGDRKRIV
Put plainly: Radioligand binding, adrenergic α2A (Protocol Group A). The settings on record: 0.1 μM compound, [3H]MK-912, read-out: percent inhibition of specific binding, Adrenergic α2A. Set-up: expressed in transfected cells; host or cells: insect Sf9 cells. On the procedure: To evaluate in radioligand binding assays the activity of compounds of the invention, human recombinant adrenergic α2A receptor expressed in insect Sf9 cells (Uhlen, S. et al, J. Pharmacol. Exp. Ther. 271:1558, 1994) in a modified Tris-HCl buffer (50 mM Tris-HCl, pH 7.4, 12.5 mM MgCl2, 2 mM EDTA) was used. Compounds of invention were incubated with 1 nM [^3H]MK-912 for 60 min at 25° C. MK912 is (2S-trans)-1,3,4,5′,6,6′,7,12b-octahydro-1′,3′-dimethyl-spiro[2H-benzofuro[2,3-a]quinolizine-2,4′(1′H)-pyrimidin]-2′(3′H)-one hydrochloride. Non-specific binding was estimated in the presence of 10 μM WB-4101 (2-(2,6-Dimethoxyphenoxyethyl)aminomethyl-1,4-benzodioxane hydrochloride). Receptor proteins were filtered and washed, the filters were then counted to determine [^3H]MK-912 specifically bound. Compounds were screened at 1 μM or lower, using 1% DMSO as vehicle. Compounds of the invention were tested in this biochemical assay and percent inhibition of specific binding was determined. Biochemical assay results are presented as the percent inhibition of specific binding in Table B1a.

By inhibition is commonly meant the relative decrease from the control value, in per cent.

`Cc1ccc2c(c1)c1c(n2CC(O)c2ccncc2)CCN2CCCC12` (single isomer, unassigned) [Compound No. 178d]: the half-life at 5 µM in data set [1] was 2.23 h; in data set [2] it was 4 h; in data set [3], above 4 h.
Turning to `Cc1ccc2c(c1)c1c(n2CC(OC(=O)N2CCCC2)c2ccncc2)CCN(C)C1` (single isomer, unassigned) [4b], the inhibition at 0.1 µM in data set [4] turned out to be 28%.
`Cc1ccc2c(c1)c1c(n2CC(C)(O)c2ccc(F)nc2)CCN2CCCC12` (single isomer, unassigned) [6a]: in data set [4], the inhibition at 0.1 µM was 59%.
For the compound `Cc1ccc2c(c1)c1c(n2C[C@@H](OC2CCCC2)c2ccncc2)CCN2CCC[C@H]12` [compound 82, (11cR)-7-[(25)-2-(cyclopentoxy)-2-(4-pyridyl)ethyl]-10-methyl-1,2,3,5,6,11c-hexahydroindolizino[7,8-b]indole], the half-life at 5 µM in data set [1] came out at 0.817 h; in data set [2], 0.8 h; in data set [3], 0.767 h.
The like results for `Cc1cc2c3c(n(CC(C)(O)c4ccncc4)c2cc1Cl)CCN1CCCC31` (single isomer, unassigned) [50a] were, in that order, 1.92 h, 2.03 h and 2.43 h.
For `Cc1cc(Cl)c2c(c1)c1c(n2CC(C)(O)c2ccncc2)CCN2CCCC12` (single isomer, unassigned) [91a], the half-life at 5 µM is 2.3 h in data set [1], 1.37 h in data set [2] and 2.82 h in data set [3].
In the case of `Cc1cc(F)c2c(c1)c1c(n2CC(C)(O)c2cccnc2)CCN2CCCC12` (centres unmarked) [Compound No. 79a], the half-life at 5 µM is above 4 h in data set [1], 3.02 h in data set [2] and 3.5 h in data set [3].
